From US11938177B2, “Peptide vaccine formulations and use thereof for inducing an immune response” (The United States of America, as represented by the …, priority 2016, dated 2024)
Square brackets hold non-standard residues; d marks the D form. Ends that are not written are not given here. Peptide text beside a SMILES is read from it. Lys(N3) = [N-]=[N+]=NCCCC[C@H](N)C(=O)O

Experiments:
[1] = Solubility of synthetic long peptides in aqueous buffer (PBS pH 7.4, bright field microscopy); format: physicochemical
Experimental: FIGS. 2A-2E: Impact of adjuvant and the composition of amino acids flanking minimal epitopes on CD8 T cell responses induced by synthetic long peptide vaccines. (2A and 2B) Synthetic long peptides delivering the minimal CTL epitope from Ovalbumin (OVA257-264: SIINFEKL, SEQ ID NO: 1) were prepared with either hydrophobic or hydrophilic flanking sequences to provide insoluble (LSI, 1) or soluble (LSS, 3) peptides alone or linked to a TLR-7/8a through a C-terminal azide to yield a LSI-7/8a (2) and LSS-7/8a (4). Bright field microscopy images are shown of […] at 0.1 mg/mL in PBS at pH 7.4. (2C) The TLR-7/8a adjuvant was delivered as either a small molecule (7/8a, 5) or as a particle (PP-7/8a, 6) with the peptide antigens. (2D and 2E) Long peptides (4 nmol) alone or admixed with or covalently attached to adjuvant (4 nmol) were subcutaneously administered into the hind footpads of mice at days 0 and 14. At day 28, tetramer+ CD8 T cell responses were evaluated from whole blood of mice (n=5-25).
FIGS. 4A-4G: Influence of neoantigen flanking sequences on long peptide morphology and CD8 T cell immunity. (4A) The sequences flanking two minimal CD8 T cell neoantigen epitopes, Reps1 (7) and Irgq (9), derived from murine MC38 […] were exchanged to create two chimeric synthetic long peptides, Reps1 FS (8) and Irgq FS (10). Bright field microscopy images are shown for peptides 7-10 at 0.1 mg/mL in PBS at pH 7.4. (4B-4G) The synthetic long peptide-based neoantigens (7-10) (4 nmol) were admixed with adjuvant (4 nmol) and subcutaneously administered into the hind footpads of C57BL/6 mice at days 0 and 14 and on day 28 whole blood was assessed for the percent of total CD8 T cells that were dextramer^+ for Reps1 (4B) and Irgq (4C); the percent of total CD8 T cells that were IFNγ following stimulation with either Reps1 (4D) or Irgq (4E); or, the percent of total CD4 T cells that were IFNγ following stimulation with either Reps1 (4F) or Irgq (4G). Data on log scale are reported as geometric mean with 95% confidence interval (CI). Data are representative of two or more independent experiments. Student's T test was used for comparison of 2 groups; ns, not significant (P>0.05); *, P<0.05; **, P<0.01.
Soluble: Capable of becoming molecularly or ionically dispersed in a solvent to form a homogeneous solution. […] Solubility can be determined visually or using spectroscopic techniques. Turbidity measurements allow for solubility determination indirectly by using a spectrophotometer to measure absorbance in the visible spectrum, typically between 300-500 nm; insoluble materials scatter light that reduces transmittance, leading to increases in measured absorbance (OD). Herein, absorbance measurements at 490 nm were used to assess solubility. […]

[2] = side chain group (epsilon amine; gamma carboxylic acid); cited from earlier work

Row | Compound | solubility in aqueous buffers [1] | pKa [2]
1 | CC[C@H](C)[C@H](NC(=O)[C@@H](NC(=O)[C@@H](N)CO)[C@@H](C)CC)C(=O)N[C@@H](CC(N)=O)C(=O)N[C@@H](Cc1ccccc1)C(=O)N[C@@H](CCC(=O)O)C(=O)N[C@@H](CCCCN)C(=O)N[C@@H](CC(C)C)C(=O)N[C@H](C(=O)N[C@@H](Cc1ccccc1)C(=O)N1CCC[C@H]1C(=O)N[C@@H](CCCNC(=N)N)C(=O)N[C@@H](CO)C(=O)N1CCC[C@H]1C(=O)N[C@H](C(=O)N[C@H](C(=O)N[C@@H](Cc1ccccc1)C(=O)N[C@@H](Cc1ccc(O)cc1)C(=O)N[C@@H](CC(N)=O)C(=O)N[C@H](C(=O)N1CCC[C@H]1C(=O)N1CCC[C@H]1C(=O)N[C@@H](CCSC)C(=O)N1CCC[C@H]1C(=O)N[C@@H](CC(C)C)C(=O)N1CCC[C@H]1C(=O)N1CCC[C@H]1C(=O)N[C@@H](CO)C(=O)N[C@@H](CCC(N)=O)C(=O)N[C@@H](CC(C)C)C(=O)N[C@@H](CCCCN=[N+]=[N-])C(=O)O)[C@@H](C)CC)C(C)C)[C@@H](C)O)C(C)C [LSI] | insoluble | –
2 | CC[C@H](C)[C@H](NC(=O)[C@@H](NC(=O)[C@@H](N)CO)[C@@H](C)CC)C(=O)N[C@@H](CC(N)=O)C(=O)N[C@@H](Cc1ccccc1)C(=O)N[C@@H](CCC(=O)O)C(=O)N[C@@H](CCCCN)C(=O)N[C@@H](CC(C)C)C(=O)N[C@H](C(=O)N[C@@H](CCCCN)C(=O)N1CCC[C@H]1C(=O)N[C@@H](CCCNC(=N)N)C(=O)N[C@@H](CO)C(=O)N1CCC[C@H]1C(=O)N[C@H](C(=O)N[C@@H](CCCNC(=N)N)C(=O)N[C@@H](Cc1ccccc1)C(=O)N[C@@H](CC(=O)O)C(=O)N[C@@H](CC(N)=O)C(=O)N[C@@H](CO)C(=O)N[C@@H](CCCCN)C(=O)N1CCC[C@H]1C(=O)N[C@@H](CO)C(=O)N1CCC[C@H]1C(=O)N[C@@H](CCC(=O)O)C(=O)N1CCC[C@H]1C(=O)N[C@@H](CCCCN)C(=O)N[C@@H](CO)C(=O)N[C@@H](CCC(N)=O)C(=O)N[C@@H](CC(=O)O)C(=O)N[C@@H](CCCCN=[N+]=[N-])C(=O)O)[C@@H](C)O)C(C)C [LSS] (H-SIINFEKLVKPRSPTRFDNSKPSPEPKSQD[Lys(N3)]-OH) | soluble | –
3 | GRVLELFRAAALLNSAVLQIMELCGATR [Irgq FS] | assembled into an aggregate | –
4 | NCCCC[C@H](N)C(=O)O [Lysine] | – | ~10.7
5 | KARDETAQLANDVVLGAAPLFVPPAD [Reps1 FS] | water-soluble | –
